Read-outs that look alike come from different tables or passages of the source.
Key:
[1] = test system: MM1.S (multiple myeloma) cells; assay: In vitro cell proliferation, MM1.S multiple myeloma cells (CellTiter-Glo, ATP); type: cell-based; conditions: Homo sapiens, MM1.S, 72 h, read-out: Prolif MM1S ATP (EC50)
Outline: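 BaF3 parental cells (medium with 2 ng/mL mIL-3) seeded at 2 k/well and MM1.S at 10 k/well, then exposed to test compound at 37° C, 5% CO2: BaF3 overnight, MM1.S for 72 hours. Viability read by CellTiter-Glo; IC50/EC50 values calculated.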

BaF3 PIM1 cells = assay: cells; conditions: Mus musculus
Procedure: BaF3 parental line was obtained from the DSMZ repository. BaF3 lines transfected with PIM 1 or PIM2 were generated. Mouse IL-3 was purchased from R&D Systems. G418 was purchased from Clontech. Media for BaF3 parental line contained RPMI, 10% FBS, 2 mM L-Glutamine, 2 ng/mL mIL-3. Media for BaF3 PIM1 & 2 lines contained RPMI, 10% FBS, 2 mM L-Glutamine, 250 μg/mL.
BaF3, a murine interleukin-3 dependent pro-B cell line, parental cells, BaF3 PIM1 cells, BaF3 PIM2 cells, and MM1.S (multiple myeloma) cells were seeded at 2 k/well, 5 k/well, 5 k/well, and 10 k/well respectively, in a 384-well plate, at 45 μL/well. Test compound was added at 5 μL/well. BaF3 cells (parental and transfected) were incubated overnight, while MM1.S cells were incubated for 72 hours at 37° C., 5% CO2. CELL TITER GLO® Reagent (Promega) was added at 50 μL/well, the plates were incubated for 30 minutes, and their luminescence read on an HT Analyst. IC50/EC50 values for the test compound were calculated.

PIM1 = PIM1 (Homo sapiens (Human), UniProt P11309); assay: Pim kinase inhibition, PIM1 LC3K (Example 901); type: biochemical
PIM1, sequence (P11309 whole entry): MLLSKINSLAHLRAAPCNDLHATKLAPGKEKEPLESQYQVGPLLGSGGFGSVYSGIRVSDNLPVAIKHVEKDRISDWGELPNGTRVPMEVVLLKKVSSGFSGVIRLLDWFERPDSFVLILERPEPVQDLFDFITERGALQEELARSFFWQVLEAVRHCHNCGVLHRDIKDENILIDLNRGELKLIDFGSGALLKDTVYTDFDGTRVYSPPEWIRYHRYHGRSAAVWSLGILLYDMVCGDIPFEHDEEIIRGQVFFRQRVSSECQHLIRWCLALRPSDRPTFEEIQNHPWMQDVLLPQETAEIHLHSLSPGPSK
Source text: Determination of the Pim kinase activity of a Formula I compound is possible by a number of direct and indirect detection methods.

BaF3 parental cells = assay: In vitro cell proliferation, BaF3 parental line + IL3 (CellTiter-Glo); type: cell-based, murine; conditions: Mus musculus, BaF3, BaF3 parental cells with IL-3, incubated overnight
[2] = BaF3, read-out: Prolif BaF3_PIM1 (IC50), BaF3 PIM1 cells, incubated overnight
[3] = read-out: Prolif BaF3 + IL3 (IC50)
[4] = BaF3, read-out: Prolif BaF3 PIM1 (IC50), BaF3 PIM1 cells, incubated overnight
[5] = read-out: Prolif BaF3 IL3 (IC50)

Compound | EC50 [1] | IC50 (BaF3 PIM1 cells; [2]) | Ki (PIM1) | IC50 (BaF3 PIM1 cells; [4]) | IC50 (BaF3 parental cells; [3]) | IC50 (BaF3 parental cells; [5])
Cn1ncc(NC(=O)c2nc(-c3ccccc3F)sc2N)c1N1CCCC(C)(N)CC1 (racemic) [Example 412, 5-amino-N-[5-(4-amino-4-methyl-azepan-1-yl)-1-methyl-pyrazol-4-yl]-2-(2-fluorophenyl)thiazole-4-carboxamide] | 1100 nM | 1500 nM | 0.057 nM |  | 7100 nM | 
Cn1ncc(NC(=O)c2nc(-c3c(F)cncc3F)sc2N)c1N1CC[C@H](N)[C@@H](F)CC1 (racemic) [Example 439, 5-amino-N-(5-((4S,5S)-4-amino-5-fluoroazepan-1-yl)-1-methyl-1H-pyrazol-4-yl)-2-(3,5-difluoropyridin-4-yl)thiazole-4-carboxamide] | 3900 nM | 38.8 nM | 0.121 nM |  | 16200 nM | 
Cn1ncc(NC(=O)c2nc(-c3ccncc3F)sc2N)c1N1CC[C@H](N)CC(F)(F)C1 (single isomer, unassigned) [Example 446] | 9200 nM | 4.51 nM | 0.01 nM |  | 23500 nM | 
Cn1ncc(NC(=O)c2nc(-c3c(F)cncc3F)sc2N)c1N1CC[C@H](N)CC(F)(F)C1 (single isomer, unassigned) [Example 454] | 3700 nM | 2.17 nM | 0.023 nM |  | 17900 nM | 
Cn1ncc(NC(=O)c2nc(-c3ccccc3F)sc2N)c1N1CCNC[C@]2(CCO2)C1 (single isomer, unassigned) [Example 480] | 6200 nM | 737 nM | 0.045 nM |  | 7100 nM | 
Cn1ncc(NC(=O)c2nc(-c3c(F)cncc3F)sc2N)c1N1CC[C@H](N)[C@@H](F)CC1 (stereo in doubt) [Example 472, 5-amino-N-[5-[(4S,5S)-4-amino-5-fluoro-azepan-1-yl]-1-methyl-pyrazol-4-yl]-2-(3,5-difluoro-4-pyridyl)thiazole-4-carboxamide] | 5600 nM | 64.8 nM | 0.086 nM |  | 18500 nM | 
Cn1ncc(NC(=O)c2nc(-c3cc(F)ccc3F)sc2N)c1N1CCNCC(F)(F)C1 [Example 106, 5-Amino-N-(5-(6,6-difluoro-1,4-diazepan-1-yl)-1-methyl-1H-pyrazol-4-yl)-2-(2,5-difluorophenyl)thiazole-4-carboxamide] | 1900 nM |  | 0.03 nM | 566 nM |  | 15600 nM
CN[C@@H]1CCCN(c2c(NC(=O)c3nc(-c4cc(F)ccc4F)sc3N)cnn2CC(F)F)CC1 [Example 108, (R)-5-Amino-N-(1-(2,2-difluoroethyl)-5-(4-(methylamino)azepan-1-yl)-1H-pyrazol-4-yl)-2-(2,5-difluorophenyl)thiazole-4-carboxamide] | 1400 nM |  | 0.43 nM | 326 nM |  | 4900 nM
CN[C@@H]1CCCN(c2c(NC(=O)c3nc(-c4cc(C)ccc4F)sc3N)cnn2CC(F)F)CC1 [Example 109, (R)-5-Amino-N-(1-(2,2-difluoroethyl)-5-(4-(methylamino)azepan-1-yl)-1H-pyrazol-4-yl)-2-(2-fluoro-5-methylphenyl)thiazole-4-carboxamide] | 3900 nM |  | 0.097 nM | 778 nM |  | 5100 nM
Cn1ncc(NC(=O)c2nc(-c3c(F)ccc(C4CC4)c3F)sc2N)c1N1CCC[C@@H](N)CC1 [Example 115, (R)-5-amino-N-(5-(4-aminoazepan-1-yl)-1-methyl-1H-pyrazol-4-yl)-2-(3-cyclopropyl-2,6-difluorophenyl)thiazole-4-carboxamide] | 420 nM |  | 0.015 nM | 86.3 nM |  | 5800 nM
[2H]C([2H])([2H])n1ncc(NC(=O)c2nc(-c3c(F)cccc3F)sc2N)c1N1CC[C@H](N)CC(F)(F)C1 [Example 493, 5-amino-N-[5-[(5S)-5-amino-3,3-difluoro-azepan-1-yl]-1-(trideuteriomethyl)pyrazol-4-yl]-2-(2,6-difluorophenyl)thiazole-4-carboxamide] | 3000 nM | 17.7 nM |  |  | 7800 nM | 

These reach a lower EC50 [1]. Values come first.

EC50 [1] | IC50 (BaF3 PIM1 cells; [2]) | Ki (PIM1) | IC50 (BaF3 PIM1 cells; [4]) | Compound | IC50 (BaF3 parental cells; [3]) | IC50 (BaF3 parental cells; [5])
123 nM | 1400 nM | 0.833 nM |  | COC1CCN(c2c(NC(=O)c3nc(-c4ccccn4)sc3N)cnn2C)CCC1N (racemic) [Example 322, 5-amino-N-[5-(4-amino-5-methoxy-azepan-1-yl)-1-methyl-pyrazol-4-yl]-2-(2-pyridyl)thiazole-4-carboxamide] | > 25000 nM | 
80.6 nM | 3.03 nM | 0.008 nM |  | Cn1ncc(NC(=O)c2nc(-c3c(F)cncc3F)sc2N)c1N1CCC(N)CC(F)(F)C1 (racemic) [Example 438, 5-amino-N-[5-(5-amino-3,3-difluoro-azepan-1-yl)-1-methyl-pyrazol-4-yl]-2-(3,5-difluoro-4-pyridyl)thiazole-4-carboxamide] | 20300 nM | 
77.4 nM | 15.2 nM | 0.024 nM |  | COC1(C)CC(N)CCN(c2c(NC(=O)c3nc(-c4c(F)cncc4F)sc3N)cnn2C)C1 (racemic) [Example 440, 5-amino-N-[5-(5-amino-3-methoxy-3-methyl-azepan-1-yl)-1-methyl-pyrazol-4-yl]-2-(3,5-difluoro-4-pyridyl)thiazole-4-carboxamide] | > 25000 nM | 
39.3 nM | 13.1 nM | 0.027 nM |  | COC1(C)CC(N)CCN(c2c(NC(=O)c3nc(-c4ccncc4F)sc3N)cnn2C)C1 (racemic) [Example 441, 5-amino-N-[5-(5-amino-3-methoxy-3-methyl-azepan-1-yl)-1-methyl-pyrazol-4-yl]-2-(3-fluoro-4-pyridyl)thiazole-4-carboxamide] | > 25000 nM | 
167 nM | 152 nM | 0.0647 nM |  | Nc1sc(-c2c(F)cccc2F)nc1C(=O)Nc1cnn(C2CC2)c1N1CCC(N)C(F)CC1 (single isomer, unassigned) [Example 331, 5-amino-N-[5-(4-amino-5-fluoro-azepan-1-yl)-1-cyclopropyl-pyrazol-4-yl]-2-(2,6-difluorophenyl)thiazole-4-carboxamide] | 13400 nM | 
388 nM |  | 0.079 nM | 157 nM | CN[C@@H]1CCCN(c2c(NC(=O)c3nc(-c4c(F)cccc4F)sc3N)cnn2CC(F)F)CC1 [Example 107, (R)-5-Amino-N-(1-(2,2-difluoroethyl)-5-(4-(methylamino)azepan-1-yl)-1H-pyrazol-4-yl)-2-(2,6-difluorophenyl)thiazole-4-carboxamide] |  | 5100 nM
122 nM |  | 0.01 nM | 63.6 nM | Cc1ccc(F)c(-c2nc(C(=O)Nc3cnn(C)c3N3CCC[C@@H](N)CC3)c(N)s2)c1F [Example 116, (R)-5-amino-N-(5-(4-aminoazepan-1-yl)-1-methyl-1H-pyrazol-4-yl)-2-(2,6-difluoro-3-methylphenyl)thiazole-4-carboxamide] |  | 8100 nM
54.6 nM | 13.4 nM |  |  | [2H]C([2H])([2H])n1ncc(NC(=O)c2nc(-c3c(F)cccc3F)sc2N)c1N1CC[C@@H](N)CC(F)(F)C1 [Example 494, 5-amino-N-[5-[(5R)-5-amino-3,3-difluoro-azepan-1-yl]-1-(trideuteriomethyl)pyrazol-4-yl]-2-(2,6-difluorophenyl)thiazole-4-carboxamide] | 8900 nM | 

Source: patent US8614206B2 (Genentech, Inc., priority 2011, dated 2013)
